Test results published in patent US20240300943A1, “NOVEL SALTS OF HETEROCYCLIC COMPOUND AS PROTEIN KINASE INHIBITOR AND USES THEREOF” (HK INNO.N CORPORATION, priority 2021, published 2024).

Assays:
[1] = system: JAK2; test: Human whole blood assay, JAK2; format: cell-based; conditions: cytokine-induced STAT phosphorylation
Procedure: (§1) A stock solution of Compound 1 obtained according to Preparation Example 1 was diluted with distilled water and then serially diluted at ⅕ with 4% DMSO. 5 μL of test material was added to 100 μL of whole blood collected using a 1.7 mL eppendorf tube, mixed, and incubated at 37° C. for 45 minutes.
(§2) IL-6 (10 μg/ml) was diluted with 0.1% BSA/DW to reach 1 μg/mL each. 5 μL of IL-6 was added (at a final concentration of 50 ng/mL) and incubated at 37° C. for 15 minutes. At this time, 5 μL of DPBS was added as a non-stimulated control group. Lyse/fix buffer 5× was diluted 1× in distilled water and used. […]
(§3) For double staining of CD4 and pSTATI, anti-[…] and anti-pSTATI were mixed in a staining buffer and added to each of the samples. […] On the next day, the results were analyzed using FACSCanto II. […]
(§4) The numerical values analyzed by FlowJo were calculated to obtain IC50 values using GraphPad Prism 5 software (product name).
(§5) No treatment response (NTR) was set as a reference, and the degree of the phosphorylation of STAT induced by cytokines was converted into a relative ratio (% control group). A dose-response plot was obtained for each concentration-dependent activity of each test material using GraphPad Prism (version 5.0) and ICso values were calculated.

[2] = system: anti-CD3 and anti-CD28-activated PBMC of patients with atopic dermatitis; test: IL-13, IL-10 and TNF-α secretion in activated PBMC of atopic patients; format: cell-based, human; conditions: 100 nM and 1,000 nM, 24 hours, FIG. 9
Procedure: 50 μL of DNase I (2000 unit/mL) was added to 50 mL of cell culture medium and mixed. (Since enzyme and cells were used, the medium was heated in a 37° C. water bath before use.) In addition, PMBC of atopic patients was rapidly dissolved in a 37° C. water bath.
PMBC was slowly flowed into the prepared medium, and reacted at 37° C. for five minutes. Centrifugation was performed using a centrifuge at 200 rpm for 15 minutes, after which supernatants were removed, suspended in 1 mL of cell culture medium, and counted.
Cells were diluted in cell culture medium and seeded in a 96-well plate to reach 2×10^5 cells/100 μL/well.
50 μL of PBMC activation medium (0.5 μg/ml CD3 antibody, 5 μg/ml CD28 antibody) was added to every well except the negative control well. (50 μL of cell culture medium was added to each negative control well.)
50 μL of the test material was added to each well according to each concentration. (final concentration of 1 nM, 10 nM, 100 nM, 1,000 nM, 50 μL of cell culture medium was added to each negative control well.)
After incubation in a 5% CO2 incubator at 37° C. for 24 hours, the plates were centrifuged at 200 rpm for 15 minutes as they were, and 150 μL of the suspension was taken, placed in a 96-well round bottom plate, and stored in a deep freezer at minus 80° C.
After the culture supernatant samples were dissolved, ELISA was performed according to the data sheet protocol of ELISA kit.

[3] = system: JAK1, 3; test: Human whole blood assay, JAK1, 3; format: cell-based; conditions: cytokine-induced STAT phosphorylation
[4] = target: JAK1 (Homo sapiens, UniProt P23458); test: ADP-Glo JAK1 kinase assay; format: biochemical
Sequence of JAK1 (Homo sapiens, UniProt P23458) (P23458 whole entry, species assumed): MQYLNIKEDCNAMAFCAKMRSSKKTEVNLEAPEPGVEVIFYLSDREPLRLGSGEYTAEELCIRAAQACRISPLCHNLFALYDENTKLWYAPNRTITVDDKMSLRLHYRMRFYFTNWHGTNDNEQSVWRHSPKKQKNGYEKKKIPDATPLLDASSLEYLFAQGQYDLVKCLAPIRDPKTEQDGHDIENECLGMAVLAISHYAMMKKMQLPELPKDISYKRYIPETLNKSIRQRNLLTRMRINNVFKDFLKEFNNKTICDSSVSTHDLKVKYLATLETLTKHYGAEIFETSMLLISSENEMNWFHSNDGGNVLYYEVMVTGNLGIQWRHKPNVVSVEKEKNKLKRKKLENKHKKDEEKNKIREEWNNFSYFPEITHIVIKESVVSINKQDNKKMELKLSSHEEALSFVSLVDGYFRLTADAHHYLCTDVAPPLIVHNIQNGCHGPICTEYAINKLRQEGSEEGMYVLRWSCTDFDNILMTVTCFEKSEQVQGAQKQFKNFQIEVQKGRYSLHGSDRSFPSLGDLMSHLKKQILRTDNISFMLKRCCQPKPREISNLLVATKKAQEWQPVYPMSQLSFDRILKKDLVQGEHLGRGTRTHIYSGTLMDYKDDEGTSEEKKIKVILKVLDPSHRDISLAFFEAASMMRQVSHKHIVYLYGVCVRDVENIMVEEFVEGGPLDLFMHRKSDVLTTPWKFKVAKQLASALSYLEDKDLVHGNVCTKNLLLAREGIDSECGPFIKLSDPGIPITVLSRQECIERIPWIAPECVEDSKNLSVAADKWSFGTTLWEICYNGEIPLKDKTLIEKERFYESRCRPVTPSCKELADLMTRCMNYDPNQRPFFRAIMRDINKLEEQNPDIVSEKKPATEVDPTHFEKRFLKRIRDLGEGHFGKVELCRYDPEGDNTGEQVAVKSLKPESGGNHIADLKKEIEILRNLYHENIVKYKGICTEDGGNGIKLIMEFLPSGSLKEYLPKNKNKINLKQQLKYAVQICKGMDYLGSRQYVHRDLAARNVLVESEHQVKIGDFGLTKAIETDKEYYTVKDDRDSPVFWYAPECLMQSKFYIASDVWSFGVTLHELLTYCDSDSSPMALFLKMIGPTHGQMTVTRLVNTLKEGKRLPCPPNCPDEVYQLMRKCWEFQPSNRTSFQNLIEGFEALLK
Procedure: 10 mM of (S)—N-(4-(1-(2-cyanoacetyl)-3-methyl-1,2,3,6-tetrahydropyridin-4-yl)-1H-pyrrolo[2,3-b]pyridin-6-yl)cyclopropanecarboxamide (hereinafter, referred to as Compound 1), which is the heterocyclic compound represented by formula II obtained according to Preparation Example 1, was diluted in DMSO to prepare samples at five concentrations (1,000 nM, 200 nM, 40 nM, 8 nM, and […]). 10 mM of ATP and 10 mg/mL of insulin receptor substrate (IRS) were diluted at 1/40 and 1/50, respectively, in 1× kinase buffer. In addition, 222 ng/μL of JAK1 enzyme was diluted at ⅛ in 1× kinase buffer to make a preparation. 1 μL of ATP, 1 μL of IRS, and 1 μL of Compound 1 prepared as above were mixed, after which 2 μL of JAK1 enzyme was finally added and reacted at 30° C. for 40 minutes. At this time, a tube without JAK1 enzyme was prepared for a blank and a tube without Compound 1 was prepared as a positive control group together (a final concentration of samples was 200 nM, 40 nM, 8 nM, 1.6 nM, and 0.32 nM).
Then, 5 μL of ADP-glo was added to each tube and reacted at 30° C. for 40 minutes, after which 10 μL of kinase detection reagent was added thereto and reacted at room temperature for 15 minutes. After 18 μL of the reactant was transferred to a 384 well plate, luminescence was measured using a plate reader.

[5] = system: JAK1; test: Human whole blood assay, JAK1; format: cell-based; conditions: cytokine-induced STAT phosphorylation
Procedure: as §1, §2, §3, §4, §5

[6] = Photostability evaluation; format: physicochemical
Text: Samples were packaged in LPDE bag, and stored under visible (1.2M Lux-h), UV (200 W-h/m2) and UV+visible conditions, respectively, and then evaluated.

| IC50 [1] [nM] | IC50 [3] [nM] | IC50 ([4]; ADP-Glo kinase assay, read-out: IC50, In vitro enzyme JAK1) [nM] | JAK1 inhibitory activity ([4]; summary of Experimental Examples 1 to 3) | IC50 [5] [nM] | Individual related material ([6]; Initial) [%] | Total related material ([6]; Initial) [%] | Individual related material ([6]; Solid, Control) [%] | Total related material ([6]; Solid, Control) [%] | Individual related material ([6]; Solid, UV (200 W-h/m2)) [%] | Total related material ([6]; Solid, UV (200 W-h/m2)) [%] | Individual related material ([6]; Solid, UV + Vis) [%] | Total related material ([6]; Solid, UV + Vis) [%] | Individual related material ([6]; Solid, UV + Vis Control) [%] | Total related material ([6]; Solid, UV + Vis Control) [%] | Individual related material ([6]; Solid, Vis (1.2M Lux-h)) [%] | Total related material ([6]; Solid, Vis (1.2M Lux-h)) [%] | SMILES | IL-10 secretion [2] | IL-13 secretion [2] | TNF-α secretion [2] |
| --- | --- | --- | --- | --- | --- | --- | --- | --- | --- | --- | --- | --- | --- | --- | --- | --- | --- | --- | --- | --- |
| 774 | 544 | 3.8 | very excellent JAK1 inhibitory activity | 70 | – | – | – | – | – | – | – | – | – | – | – | – | C[C@@H]1CN(C(=O)CC#N)CC=C1c1cc(NC(=O)C2CC2)nc2[nH]ccc12 [Compound 1, (S)—N-(4-(1-(2-cyanoacetyl)-3-methyl-1,2,3,6-tetrahydropyridin-4-yl)-1H-pyrrolo[2,3-b]pyridin-6-yl)cyclopropanecarboxamide] | significantly reduced | significantly reduced | significantly reduced |
| – | – | – | – | – | 0.08 | 0.45 | 0.07 | 0.37 | 0.1 | 0.42 | 0.08 | 0.5 | 0.08 | 0.48 | 0.07 | 0.41 | C[C@@H]1CN(C(=O)CC#N)CC=C1c1cc(NC(=O)C2CC2)nc2[nH]ccc12 [Example 3, (S)—N-(4-(1-(2-cyanoacetyl)-3-methyl-1,2,3,6-tetrahydropyridin-4-yl)-1H-pyrrolo[2,3-b]pyridin-6-yl)cyclopropanecarboxamide] | – | – | – |
